Measured values as given in patent US20240041042A1, “1-(PYRIDYL)-5-AZINYLPYRAZOLE DERIVATIVES, AND THEIR USE FOR CONTROL OF UNDESIRED PLANT GROWTH” (Bayer Aktiengesellschaft, priority 2020, published 2024).
Like-named read-outs stand apart in the source and are kept apart here.

What was measured:
Type in all cases: in vivo
[1] = tested on: Alopecurus myosuroides (ALOMY); assay: Pre-emergence herbicidal action against ALOMY; conditions: scored visually after about 3 weeks, 100% = plants have died
Method in brief: (§1)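 Pre-emergence soil-surface spray of compound, formulated as wettable powder or emulsion concentrate, in aqueous suspension or emulsion with 0.5% additive (600 l/ha; rate 320 g/ha or less). Activity rated visually after roughly 3 weeks in the greenhouse as a percentage of untreated controls, 0% meaning no difference.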

[2] = tested on: Amaranthus retroflexus (AMARE); assay: Pre-emergence herbicidal action against AMARE; conditions: visual scoring after about 3 weeks vs untreated controls
Method in brief: as §1

[3] = tested on: Echinochloa crus-galli (ECHCG); assay: Pre-emergence herbicidal action against ECHCG; conditions: dosage 320 g/ha
Method in brief: as §1

[4] = tested on: Lolium rigidum (LOLRI); assay: Pre-emergence herbicidal action against LOLRI; conditions: dosage 320 g/ha
Method in brief: as §1

[5] = tested on: Matricaria inodora (MATIN); assay: Pre-emergence herbicidal action against MATIN; conditions: dosage 320 g/ha
Method in brief: as §1

[6] = tested on: Pharbitis purpurea (PHBPU); assay: Pre-emergence herbicidal action against PHBPU; conditions: dosage 320 g/ha
Method in brief: as §1

[7] = tested on: Setaria viridis (SETVI); assay: Pre-emergence herbicidal action against SETVI
Method in brief: as §1

[8] = tested on: Verconica persica (VERPE); assay: Pre-emergence herbicidal action against VERPE
Method in brief: as §1

[9] = tested on: Oryza sativa (ORYSA); conditions: pre-emergence, 80 g/ha, crop plant compatibility, in comparison to untreated controls
Method in brief: (§2)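 Scoring: visual, % of untreated control, about 3 weeks after a pre-emergence application to the soil surface. Application used WP or EC formulations diluted in water with 0.5% additive at 600 l/ha; dosage levels are marked by suffixes a, b and c.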

[10] = tested on: Triticum aestivum (TRZAS); conditions: pre-emergence, 80 g/ha, crop plant compatibility, in comparison to untreated controls
Method in brief: as §2

[11] = tested on: Zea mays (ZEAMX); conditions: pre-emergence, 80 g/ha, crop plant compatibility, in comparison to untreated controls
Method in brief: as §2

[12] = tested on: Abutilon theophrasti (ABUTH); assay: Post-emergence herbicidal action against ABUTH; conditions: 320 g/ha, visual rating about 3 weeks after treatment vs untreated controls (100% = plants have died, 0% = like control plants)
Method in brief: (§3)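 Greenhouse plants sprayed at the one-leaf stage, 2–3 weeks after sowing, with WP or EC formulations plus 0.5% additive at 600 l/ha water. Activity rated visually after about 3 weeks versus untreated controls (100% = dead, 0% = like control), at 320 g/ha or lower.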

[13] = tested on: Alopecurus myosuroides (ALOMY); assay: Post-emergence herbicidal action against ALOMY; conditions: visual rating about 3 weeks after treatment vs untreated controls (100% = plants have died, 0% = like control plants)
Method in brief: as §3

[14] = tested on: Amaranthus retroflexus (AMARE); assay: Post-emergence herbicidal action against AMARE; conditions: 320 g/ha, visual rating about 3 weeks after treatment
Method in brief: as §3

[15] = tested on: Echinochloa crus-galli (ECHCG); assay: Post-emergence herbicidal action against ECHCG
Method in brief: as §3

[16] = tested on: Lolium rigidum (LOLRI); assay: Post-emergence herbicidal action against LOLRI
Method in brief: as §3

[17] = tested on: Pharbitis purpurea (PHBPU); assay: Post-emergence herbicidal action against PHBPU; conditions: dosage 320 g/ha
Method in brief: as §3

[18] = tested on: Polygonum convolvulus (POLCO); assay: Post-emergence herbicidal action against POLCO; conditions: dosage 320 g/ha
Method in brief: as §3

[19] = tested on: Setaria viridis (SETVI); assay: Post-emergence herbicidal action against SETVI; conditions: dosage 320 g/ha
Method in brief: as §3

[20] = tested on: Verconica persica (VERPE); assay: Post-emergence herbicidal action against VERPE; conditions: 320 g/ha, VERPE
Method in brief: as §3

[21] = tested on: Viola tricolor (VIOTR); assay: Post-emergence herbicidal action against VIOTR
Method in brief: as §3

[22] = tested on: Oryza sativa (ORYSA); conditions: crop plant compatibility
Method in brief: (§4)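 Greenhouse crops in sandy loam sprayed post-emergence at the one-leaf stage, 2–3 weeks after sowing, with WP or EC formulations in water plus 0.5% additive at 600 l/ha. Damage rated visually about 3 weeks later versus untreated controls (0% = like control, 100% = dead); suffixes a–c denote different doses.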

[23] = tested on: Triticum aestivum (TRZAS); conditions: crop plant compatibility, effect vs untreated controls
Method in brief: as §4

[24] = tested on: Zea mays (ZEAMX); conditions: for Post-emergence action against ZEAMX in %: crop plant compatibility, 80 g/ha, effect vs untreated controls; for Post-emergence action against ZEAMX in % (crop plant compatibility): 20 g/ha, effect in comparison to untreated controls
Method in brief: as §4

[25] = tested on: Avena fatua (AVEFA); assay: Pre-emergence herbicidal action against AVEFA; conditions: 320 g/ha, visual scoring after about 3 weeks vs untreated controls
Method in brief: as §1

[26] = tested on: Viola tricolor (VIOTR); assay: Pre-emergence herbicidal action against VIOTR
Method in brief: as §1

[27] = tested on: Brassica napus (BRSNW); conditions: 80 g/ha, crop plant compatibility, in comparison to untreated controls
Method in brief: as §2

[28] = tested on: Avena fatua (AVEFA); assay: Post-emergence herbicidal action against AVEFA; conditions: 80 g/ha, visual rating about 3 weeks after treatment
Method in brief: as §3

[29] = tested on: Polygonum convolvulus (POLCO); assay: Pre-emergence herbicidal action against POLCO
Method in brief: as §1

[30] = 80 g/ha, effect in comparison to untreated controls
[31] = 20 g/ha, effect vs untreated controls

| SMILES | Pre-emergence action against ALOMY ([1]; 320 g/ha) [%] | Pre-emergence action against AMARE in % ([2]; 320 g/ha) [%] | Pre-emergence action against ECHCG in % [3] [%] | Pre-emergence action against LOLRI in % [4] [%] | Pre-emergence action against MATIN in % [5] [%] | Pre-emergence action against SETVI in % ([7]; dosage 320 g/ha) [%] | Pre-emergence action against VERPE in % ([8]; dosage 80 g/ha) [%] | Pre-emergence action against VERPE in % ([8]; dosage 320 g/ha) [%] | Pre-emergence action against ZEAMX in % [11] [%] | Post-emergence action against ORYSA in % [22, 30] [%] | Post-emergence action against ZEAMX in % [24] [%] | Pre-emergence action against AVEFA in % [25] [%] | Pre-emergence action against VIOTR in % ([26]; 320 g/ha, Viola tricolor) [%] | Pre-emergence action against VIOTR in % ([26]; dosage 80 g/ha) [%] | Pre-emergence action against BRSNW in % [27] [%] | Post-emergence action against ALOMY in % ([13]; 80 g/ha) [%] | Post-emergence action against AVEFA in % [28] [%] | Post-emergence action against LOLRI in % ([16]; dosage 80 g/ha) [%] | Post-emergence action against ORYSA in % [22, 31] [%] | Post-emergence action against ZEAMX in % (crop plant compatibility) [24] [%] | also measured |
| --- | --- | --- | --- | --- | --- | --- | --- | --- | --- | --- | --- | --- | --- | --- | --- | --- | --- | --- | --- | --- | --- |
| Cc1cccc(-n2nc(OCC(=O)O)c(Br)c2-c2ccc(F)nc2)n1 [Example I-376] | 80 | 90 | 90 | 90 | 80 | 100 | 80 | 80 | 10 | 0 | 10 |  |  |  |  |  |  |  |  |  | Pre-emergence action against PHBPU in % [6]: 90%; Pre-emergence action against ORYSA in % [9]: 20%; Pre-emergence action against TRZAS in % [10]: 10%; Post-emergence action against ABUTH in % [12]: 80%; Post-emergence action against ALOMY in % ([13]; 320 g/ha): 80%; Post-emergence action against AMARE in % [14]: 80%; Post-emergence action against ECHCG in % ([15]; dosage 320 g/ha): 90%; Post-emergence action against LOLRI in % ([16]; dosage 320 g/ha): 90%; Post-emergence action against PHBPU in % [17]: 80%; Post-emergence action against POLCO in % [18]: 80%; Post-emergence action against SETVI in % [19]: 80%; Post-emergence action against VERPE in % [20]: 80%; Post-emergence action against VIOTR in % ([21]; 320 g/ha): 80%; Post-emergence action against ORYSA in % ([22]; 320 g/ha, effect in comparison to untreated controls): 20%; Post-emergence action against TRZAS in % ([23]; 80 g/ha): 0%; Post-emergence action against TRZAS in % ([23]; 320 g/ha): 20% |
| CCOC(=O)C(C)Oc1nn(-c2ccccn2)c(-c2ccc(F)nc2)c1I (centres unmarked) [Example I-101] | 100 | 100 | 90 | 100 |  | 100 |  | 100 |  | 10 | 10 | 90 | 100 | 80 | 10 | 90 | 80 | 90 | 0 | 10 | Pre-emergence action against SETVI in % ([7]; dosage 80 g/ha): 90%; Post-emergence action against VIOTR in % ([21]; 80 g/ha): 80% |
| COC(=O)[C@@H](C)Oc1nn(-c2ncccc2Cl)c(-c2ccc(F)nc2)c1Br [Example I-24] | 100 | 100 | 100 | 100 | 90 | 90 | 80 | 100 | 10 | 10 | 20 | 100 | 100 | 90 | 20 | 90 | 90 | 90 | 0 | 10 | Pre-emergence action against ALOMY ([1]; 80 g/ha): 100%; Pre-emergence action against AMARE in % ([2]; 80 g/ha): 90%; Pre-emergence action against POLCO in % ([29]; dosage 80 g/ha): 90%; Pre-emergence action against POLCO in % ([29]; dosage 320 g/ha): 90%; Post-emergence action against ECHCG in % ([15]; dosage 80 g/ha): 80% |
